In the supplement of paper PMC12613149:
Counter-ions that a name gives are not always drawn.

Key:
[1] = collision cross section (TIMS, N2 drift gas) of the primary ion; higher = larger gas-phase ion size
[2] = reversed-phase LC retention time (C18, 15 min MeOH gradient); higher = more hydrophobic / later elution
[3] = ionization mode: ESI+, ion species: [M+H]+
[4] = ionization mode: ESI-, ion species: [M-H]-

Compound | collision cross section [1, 3] | collision cross section [1, 4] | reversed-phase LC retention time [2, 3] | reversed-phase LC retention time [2, 4]
O=C(Nc1ccc(Cl)cc1)Nc1ccc(Cl)c(Cl)c1 [Triclocarban] | 173.98 Å² | 167.79 Å² | 16.2 min | 16.6 min
Oc1cc(Cl)ccc1Oc1ccc(Cl)cc1Cl [Triclosan] |  | 158.5 Å² |  | 16.8 min
Cc1ccc(OP(=O)(Oc2ccc(C)cc2)Oc2ccc(C)cc2)cc1 [Tricresylphosphate] | 190.01 Å² |  | 17.2 min | 
CCOC(=O)CC(O)(CC(=O)OCC)C(=O)OCC [Triethylcitrate] | 159.4 Å² |  | 11.8 min | 
CCCCOCCOCCOCCO [Triethylene Glycol Monobutyl Ether] | 143.71 Å² |  | 11.2 min | 
CCOP(=O)(OCC)OCC [Triethylphosphate] | 131.26 Å² |  | 10.7 min | 
CO/N=C(/C(=O)OC)c1ccccc1CO/N=C(\C)c1cccc(C(F)(F)F)c1 [Trifloxystrobin] | 188.81 Å² |  | 16.3 min | 
O=S(=O)(O)C(F)(F)F [Trifluoromethanesulfonic acid] |  | 108.15 Å² |  | 1.37 min
COc1cc(Cc2cnc(N)nc2N)cc(OC)c1OC [Trimethoprim] | 173.75 Å² |  | 7.8 min | 
COP(=O)(OC)OC [Trimethylphosphate] | 116.51 Å² |  | 6.15 min | 
O=P(Oc1ccccc1)(Oc1ccccc1)Oc1ccccc1 [Triphenylphosphate] | 172.48 Å² |  | 15.7 min | 
CCCOP(=O)(OCCC)OCCC [Tripropyl phosphate] | 149 Å² |  | 14.2 min | 
CC(CCl)OP(=O)(OC(C)CCl)OC(C)CCl (centres undefined) [Tris(1-chloro-2-propyl)phosphate] | 162.58 Å² |  | 14.3 min | 
O=P(OCC(Br)CBr)(OCC(Br)CBr)OCC(Br)CBr (centres undefined) [Tris(2,3-dibromopropyl)phosphate] | 195.61 Å² |  | 16 min | 
O=P(OCCCl)(OCCCl)OCCCl [Tris(2-chloroethyl)phosphate] | 150.93 Å² |  | 11.7 min | 
CCCCC(CC)COC(=O)c1ccc(C(=O)OCC(CC)CCCC)c(C(=O)OCC(CC)CCCC)c1 (centres undefined) [Tris(2-ethylhexyl)trimellitate] | 258.93 Å² |  | 20.9 min | 
CC(C)(c1ccccc1)c1cc(-n2nc3ccccc3n2)c(O)c(C(C)(C)c2ccccc2)c1 [UV-234] | 219.51 Å² |  | 19.7 min | 
CC(C)(C)c1cc(-n2nc3ccccc3n2)c(O)c(C(C)(C)C)c1 [UV-320] | 188.24 Å² | 193.86 Å² | 19.7 min | 20.9 min
CC(C)(C)c1cc(-n2nc3ccc(Cl)cc3n2)c(O)c(C(C)(C)C)c1 [UV-327] |  | 199.94 Å² |  | 22 min
CCC(C)(C)c1cc(-n2nc3ccccc3n2)c(O)c(C(C)(C)CC)c1 [UV-328] | 196.56 Å² |  | 20.1 min | 
CC(C)(C)CC(C)(C)c1cc(-n2nc3ccccc3n2)c(O)c(C(C)(C)c2ccccc2)c1 [UV-928] | 220.23 Å² |  | 20.4 min | 
C[C@H]1CCCC(=O)CCC/C=C/c2cc(O)cc(O)c2C(=O)O1 [Zearalenone] |  | 178.16 Å² |  | 14.4 min
Cc1cc(-c2ccc(N)c(C)c2)ccc1N [o-Tolidine] | 165.69 Å² |  | 7.76 min | 
Cc1cc(O)ccc1Cl [p-Chlorocresol] |  | 122.21 Å² |  | 11.6 min

Now from value to compound:

collision cross section [1, 3] | collision cross section [1, 4] | reversed-phase LC retention time [2, 3] | reversed-phase LC retention time [2, 4] | Compound
163 Å² |  | 13.9 min |  | O=P(c1ccccc1)(c1ccccc1)c1ccccc1 [Triphenylphosphine oxide]
131.65 Å² |  | 6.72 min |  | CCCN(CCC)CCC [Tripropylamine]
221.12 Å² |  | 19.8 min |  | CCCCC(CC)COP(=O)(OCC(CC)CCCC)OCC(CC)CCCC (centres undefined) [Tris(2-ethylhexl)phosphate]
186.88 Å² | 184.96 Å² | 13.7 min | 11.8 min | COc1nc(NC(=O)NS(=O)(=O)c2ccccc2C(F)(F)F)nc(C(F)(F)F)n1 [Tritosulfuron]
282.55 Å² | 293.81 Å² | 13 min | 15.6 min | CC[C@H]1OC(=O)C[C@@H](O)[C@H](C)[C@@H](O[C@@H]2O[C@H](C)[C@@H](O[C@H]3C[C@@](C)(O)[C@@H](O)[C@H](C)O3)[C@H](N(C)C)[C@H]2O)[C@@H](CC=O)C[C@@H](C)C(=O)/C=C/C(C)=C/[C@@H]1CO[C@@H]1O[C@H](C)[C@@H](O)[C@@H](OC)[C@H]1OC [Tylosin]
226.35 Å² |  | 7.4 min |  | CC1(C)CC(N(C=O)CCCCCCN(C=O)C2CC(C)(C)NC(C)(C)C2)CC(C)(C)N1 [Univul-4050H]
208.26 Å² | 219.38 Å² | 18.4 min | 17.6 min | C[C@H]1[C@H](C)CC[C@]2(C(=O)O)CC[C@]3(C)C(=CC[C@@H]4[C@@]5(C)CC[C@H](O)C(C)(C)[C@@H]5CC[C@]43C)[C@H]12 [Ursolic acid]
209.29 Å² |  | 17.4 min |  | CCCCCCOC(=O)c1ccccc1C(=O)c1ccc(N(CC)CC)cc1O [Uvinul A Plus]
161.62 Å² | 162.3 Å² | 11.2 min | 6.27 min | O=C(O)c1ccc(-c2ccccc2-c2nnn[nH]2)cc1 [Valsartan acid]
204.42 Å² | 203.89 Å² | 14.4 min | 11.8 min | CCCCC(=O)N(Cc1ccc(-c2ccccc2-c2nn[nH]n2)cc1)C(C(=O)O)C(C)C (centres undefined) [Valsartan]
227.75 Å² | 219.66 Å² | 12 min | 14.9 min | CCCc1nc(C)c2c(=O)nc(-c3cc(S(=O)(=O)N4CCN(CC)CC4)ccc3OCC)[nH]n12 [Vardenafil]
166.78 Å² | 172.85 Å² | 8.96 min | 11.3 min | CN(C)CC(c1ccc(O)cc1)C1(O)CCCCC1 (centres undefined) [Venlafaxine-O-desmethyl]
208.22 Å² |  | 12.2 min |  | COc1ccc(CCN(C)CCCC(C#N)(c2ccc(OC)c(OC)c2)C(C)C)cc1OC (centres undefined) [Verapamil]
168.14 Å² | 171.91 Å² | 14.1 min | 10.1 min | CC(=O)CC(c1ccccc1)c1c(O)c2ccccc2oc1=O (centres undefined) [Warfarin]
192.95 Å² |  | 11.2 min |  | O=C1Cc2cc(CCN3CCN(c4nsc5ccccc45)CC3)c(Cl)cc2N1 [Ziprasidone]
 | 136.84 Å² |  | 7.68 min | Cc1ccc(S(=O)(=O)O)c(C)c1 [m-Xylene-4-sulfonic acid]
 | 134.47 Å² |  | 8.4 min | Cc1ccc(S(N)(=O)=O)cc1 [p-Toluenesulfonamide]
 | 135.45 Å² |  | 7.34 min | Cc1ccc(OS(=O)(=O)[O-])cc1 [p-Tolyl Sulfate]
